Experimental data published in US12043670B2, “Anti-BCMA antibody-drug conjugates and methods of use” (Eisai R&D Management Co., Ltd., priority 2020, dated 2024).
Where a SMILES comes first, the peptide text is derived from it. [ ]: non-standard residue; d: D form. Dolaproine = CO[C@@H]([C@@H]1CCCN1)[C@@H](C)C(=O)O; Dil = CC[C@H](C)[C@H](NC)[C@@H](CC(=O)O)OC; NMeV = CN[C@H](C(=O)O)C(C)C

Legend:
Format in all cases: cell-based, human
MM1.S cells = experiment: CellTiter-Glo cell viability, MM1.S; conditions: MM1S cells, 6 days; for LD50 / GI50: CellTiter-Glo; for GI50: read-out: GI50; for RminAve: negative = cell death vs T0
MM1.R cells = experiment: CellTiter-Glo cell viability, MM1.R; conditions: MM1R cells, 6 days; for LD50 / GI50: CellTiter-Glo; for GI50: read-out: GI50; for RminAve: negative = cell death vs T0
OPM2 cells = experiment: CellTiter-Glo cell viability, OPM2 (normal serum); conditions: OPM2 cells, 6 days; for LD50 / GI50: CellTiter-Glo; for GI50: read-out: GI50; for RminAve: negative = cell death vs T0
NCI-H929 cells = experiment: CellTiter-Glo cell viability, NCI-H929 (normal serum); conditions: NCIH929 cells, 6 days; for LD50 / GI50: CellTiter-Glo; for GI50: read-out: GI50; for RminAve: negative = cell death vs T0
MOLP8 cells = experiment: CellTiter-Glo cell viability, MOLP8; conditions: MOLP8 cells, 6 days; for LD50 / GI50: CellTiter-Glo; for GI50: read-out: GI50; for RminAve: negative = cell death vs T0
LP-1 cells = experiment: 6-day CellTiter-Glo cell viability, LP-1; conditions: LP1 cells, 6 days; for LD50 / GI50: CellTiter-Glo; for GI50: read-out: GI50; for RminAve: negative = cell death vs T0
AMO-1 cells = experiment: 6-day CellTiter-Glo cell viability, AMO-1; conditions: AMO1 cells, 6 days; for LD50 / GI50: CellTiter-Glo; for GI50: read-out: GI50; for RminAve: negative = cell death vs T0
EJM cells = experiment: 6-day CellTiter-Glo cell viability, EJM; conditions: EJM cells, 6 days; for LD50 / GI50: CellTiter-Glo; for GI50: read-out: GI50; for RminAve: negative = cell death vs T0
RPMI-8226 cells = experiment: 6-day CellTiter-Glo cell viability, RPMI-8226; conditions: RPMI8226 cells, 6 days; for LD50 / GI50: CellTiter-Glo; for GI50: read-out: GI50; for RminAve: negative = cell death vs T0
U266B1 cells = experiment: 6-day CellTiter-Glo cell viability, U266B1; conditions: U266B1 cells, 6 days; for LD50 / GI50: CellTiter-Glo; for GI50: read-out: GI50; for RminAve: negative = cell death vs T0
KMS-11 cells = experiment: 6-day CellTiter-Glo cell viability, KMS-11; conditions: KMS11 cells, 6 days; for LD50 / GI50: CellTiter-Glo; for GI50: read-out: GI50; for RminAve: negative = cell death vs T0

Q: Which “AUC (nM * % relative viability)” value (MM1.S cells) does the source give for `CC[C@H](O)[C@@H](C)[C@H]1O[C@@H]1C[C@@](C)(O)/C=C/C=C(\C)[C@H]1OC(=O)C[C@H](O)CC[C@@](C)(O)[C@@H](OC(=O)N2CCN(C3CCCCCC3)CC2)/C=C/[C@@H]1C` [E7107 (D11)] here?
A: Its value is 380.5913 nM * % relative viability.

Q: What about the LD50 (MM1.S cells) of the same molecule?
A: Its LD50 is 18.155 nM.

Q: And the GI50 (MM1.S cells)?
A: The GI50 was 3.51 nM.

Q: What about the RminAve (MM1.S cells) of the same molecule?
A: The RminAve was −99.7761%.

Q: What about the “AUC (nM * % relative viability)” value (MM1.R cells) of the same molecule?
A: The value was 374.4113 nM * % relative viability.

Q: And the LD50 (MM1.R cells)?
A: Its LD50 is 16.5876 nM.

Q: What about the GI50 (MM1.R cells) of the same molecule?
A: The GI50 was 3.33 nM.

Q: What about the RminAve (MM1.R cells) of the same molecule?
A: The RminAve was −99.831%.

Q: What about the “AUC (nM * % relative viability)” value (OPM2 cells) of the same molecule?
A: Its value is 289.9829 nM * % relative viability.

Q: And the LD50 (OPM2 cells)?
A: Its LD50 is 4.7541 nM.

Q: What about the GI50 (OPM2 cells) of the same molecule?
A: The GI50 was 1.67 nM.

Q: What about the RminAve (OPM2 cells) of the same molecule?
A: Its RminAve is −99.6884%.

Q: And the “AUC (nM * % relative viability)” value (NCI-H929 cells)?
A: The value was 321.415 nM * % relative viability.

Q: And the LD50 (NCI-H929 cells)?
A: The LD50 was 5.836 nM.

Q: And the GI50 (NCI-H929 cells)?
A: Its GI50 is 2.81 nM.

Q: What about the RminAve (NCI-H929 cells) of the same molecule?
A: Its RminAve is −99.8426%.

Q: What about the “AUC (nM * % relative viability)” value (MOLP8 cells) of the same molecule?
A: Its value is 361.7797 nM * % relative viability.

Q: What about the LD50 (MOLP8 cells) of the same molecule?
A: Its LD50 is 16.8329 nM.

Q: And the GI50 (MOLP8 cells)?
A: The GI50 was 2.43 nM.

Q: And the RminAve (MOLP8 cells)?
A: The RminAve was −99.6765%.

Q: What about the “AUC (nM * % relative viability)” value (LP-1 cells) of the same molecule?
A: Its value is 313.7701 nM * % relative viability.

Q: What about the LD50 (LP-1 cells) of the same molecule?
A: The LD50 was 6.2485 nM.

Q: And the GI50 (LP-1 cells)?
A: The GI50 was 2.2 nM.

Q: What about the RminAve (LP-1 cells) of the same molecule?
A: The RminAve was −99.6676%.

Q: What about the “AUC (nM * % relative viability)” value (AMO-1 cells) of the same molecule?
A: Its value is 487.7156 nM * % relative viability.

Q: What about the LD50 (AMO-1 cells) of the same molecule?
A: Its LD50 is 50.4287 nM.

Q: What about the GI50 (AMO-1 cells) of the same molecule?
A: Its GI50 is 14.9 nM.

Q: And the RminAve (AMO-1 cells)?
A: Its RminAve is −96.8372%.

Q: What about the “AUC (nM * % relative viability)” value (EJM cells) of the same molecule?
A: The value was 434.2294 nM * % relative viability.

Q: And the LD50 (EJM cells)?
A: The LD50 was 22.175 nM.

Q: What about the GI50 (EJM cells) of the same molecule?
A: The GI50 was 9.45 nM.

Q: What about the RminAve (EJM cells) of the same molecule?
A: The RminAve was −99.071%.

Q: What about the “AUC (nM * % relative viability)” value (RPMI-8226 cells) of the same molecule?
A: The value was 359.1272 nM * % relative viability.

Q: And the LD50 (RPMI-8226 cells)?
A: Its LD50 is 10.8782 nM.

Q: And the GI50 (RPMI-8226 cells)?
A: The GI50 was 3.59 nM.

Q: And the RminAve (RPMI-8226 cells)?
A: Its RminAve is −99.7762%.

Q: And the “AUC (nM * % relative viability)” value (U266B1 cells)?
A: The value was 422.0108 nM * % relative viability.

Q: And the LD50 (U266B1 cells)?
A: Its LD50 is 18.2733 nM.

Q: And the GI50 (U266B1 cells)?
A: Its GI50 is 8.76 nM.

Q: What about the RminAve (U266B1 cells) of the same molecule?
A: The RminAve was −95.1886%.

Q: And the “AUC (nM * % relative viability)” value (KMS-11 cells)?
A: Its value is 382.1527 nM * % relative viability.

Q: What about the LD50 (KMS-11 cells) of the same molecule?
A: The LD50 was 13.1801 nM.

Q: And the GI50 (KMS-11 cells)?
A: The GI50 was 5.03 nM.

Q: What about the RminAve (KMS-11 cells) of the same molecule?
A: Its RminAve is −99.2702%.

Q: What does the source list for `CC[C@H](C)[C@@H]([C@@H](CC(=O)N1CCC[C@H]1[C@H](OC)[C@@H](C)C(=O)N[C@@H](Cc1ccccc1)C(=O)O)OC)N(C)C(=O)[C@@H](NC(=O)[C@@H](NC)C(C)C)C(C)C` [MMAF] (H-[NMeV]V[Dil][Dolaproine]F-OH)?
A: AUC (nM * % relative viability) (MM1.S cells): 726.0671 nM * % relative viability; LD50 (MM1.S cells): 615.7256 nM; GI50 (MM1.S cells): 296 nM; RminAve (MM1.S cells): −99.8301%; AUC (nM * % relative viability) (MM1.R cells): 721.5643 nM * % relative viability; LD50 (MM1.R cells): 584.6173 nM; GI50 (MM1.R cells): 281 nM; RminAve (MM1.R cells): −99.7818%; AUC (nM * % relative viability) (OPM2 cells): 740.134 nM * % relative viability; LD50 (OPM2 cells): 723.9832 nM; GI50 (OPM2 cells): 348 nM; RminAve (OPM2 cells): −99.7203%; AUC (nM * % relative viability) (NCI-H929 cells): 734.8893 nM * % relative viability; LD50 (NCI-H929 cells): 676.4428 nM; GI50 (NCI-H929 cells): 321 nM; RminAve (NCI-H929 cells): −99.782%; AUC (nM * % relative viability) (MOLP8 cells): 788.7538 nM * % relative viability; LD50 (MOLP8 cells): 4689.579 nM; GI50 (MOLP8 cells): 254 nM; RminAve (MOLP8 cells): −58.9492%; AUC (nM * % relative viability) (LP-1 cells): 724.5606 nM * % relative viability; LD50 (LP-1 cells): 761.0403 nM; GI50 (LP-1 cells): 223 nM; RminAve (LP-1 cells): −97.9742%; AUC (nM * % relative viability) (AMO-1 cells): 640.894 nM * % relative viability; LD50 (AMO-1 cells): 243.7059 nM; GI50 (AMO-1 cells): 101 nM; RminAve (AMO-1 cells): −99.5356%; AUC (nM * % relative viability) (EJM cells): 600.0131 nM * % relative viability; LD50 (EJM cells): 194.3761 nM; GI50 (EJM cells): 51.5 nM; RminAve (EJM cells): −98.8551%; AUC (nM * % relative viability) (RPMI-8226 cells): 714.2788 nM * % relative viability; LD50 (RPMI-8226 cells): 557.1533 nM; GI50 (RPMI-8226 cells): 224 nM; RminAve (RPMI-8226 cells): −95.3537%; AUC (nM * % relative viability) (U266B1 cells): 661.824 nM * % relative viability; LD50 (U266B1 cells): 192.3371 nM; GI50 (U266B1 cells): 67.8 nM; RminAve (U266B1 cells): −89.2656%; AUC (nM * % relative viability) (KMS-11 cells): 706.6578 nM * % relative viability; LD50 (KMS-11 cells): 490.3828 nM; GI50 (KMS-11 cells): 235 nM; RminAve (KMS-11 cells): −98.8009%

Q: How did the GI50 (MM1.S cells) turn out when `N.N.[Cl][Pt][Cl]` [cisplatin] was run?
A: The GI50 was 10200 nM.

Q: And the RminAve (MM1.S cells)?
A: The RminAve was −99.8687%.

Q: And the GI50 (MM1.R cells)?
A: Its GI50 is 7300 nM.

Q: And the RminAve (MM1.R cells)?
A: Its RminAve is −99.9355%.

Q: What about the GI50 (OPM2 cells) of the same molecule?
A: The GI50 was 17000 nM.

Q: And the RminAve (OPM2 cells)?
A: Its RminAve is −99.784%.

Q: What about the GI50 (NCI-H929 cells) of the same molecule?
A: The GI50 was 21400 nM.

Q: And the RminAve (NCI-H929 cells)?
A: Its RminAve is −99.945%.

Q: And the GI50 (MOLP8 cells)?
A: The GI50 was 5070 nM.

Q: And the RminAve (MOLP8 cells)?
A: The RminAve was −99.8824%.

Q: And the GI50 (LP-1 cells)?
A: Its GI50 is 50100 nM.

Q: What about the RminAve (LP-1 cells) of the same molecule?
A: Its RminAve is −97.8184%.

Q: What about the GI50 (AMO-1 cells) of the same molecule?
A: The GI50 was 8590 nM.

Q: What about the RminAve (AMO-1 cells) of the same molecule?
A: The RminAve was −99.8648%.

Q: What about the GI50 (EJM cells) of the same molecule?
A: Its GI50 is 30100 nM.

Q: What about the RminAve (EJM cells) of the same molecule?
A: The RminAve was −99.8757%.

Q: And the GI50 (RPMI-8226 cells)?
A: The GI50 was 16300 nM.

Q: What about the RminAve (RPMI-8226 cells) of the same molecule?
A: The RminAve was −99.2206%.

Q: And the GI50 (U266B1 cells)?
A: The GI50 was 39900 nM.

Q: And the RminAve (U266B1 cells)?
A: The RminAve was −99.4122%.

Q: And the GI50 (KMS-11 cells)?
A: The GI50 was 14400 nM.

Q: What about the RminAve (KMS-11 cells) of the same molecule?
A: Its RminAve is −99.8489%.
